One data set has as its system M. bovis. Briefly: microbe, parasite or virus in culture. The data set is classed as cell-based. Particulars: Mycobacterium tuberculosis variant bovis.
In another data set the test system is M. marinum. Kind of data set: Spectrum of activity MIC, MOTT, agar proportion method. The data set is classed as cell-based. Particulars: Mycobacterium marinum; three strains.
The next data set addresses T1, dopamine receptor D1 (Homo sapiens, UniProt P21728).
T1 construct: CEREP (contract testing)
Briefly: CEREP receptor binding, D1. Particulars: tested at 10 μM; read-out: inhibition of control specific binding. From the text:
(§1) In vitro testing for safety pharmacology and early ADMET (Absorption, Distribution, Metabolism, Excretion, Toxicity) studies of compound 109 were contracted out to CEREP (15318 NE 95th Street, Redmond, Wash., 98052, USA www.cerep.com) under a service agreement and included evaluation of inhibitory binding to a panel of 27 standard receptors and three transporters (See FIG. 60 (Table 31) and FIG. 61 (Table 32)) which included: adenosine receptors (A1 and A2A), adrenergic receptors (alpha 1, alpha 2, beta 1), angiotensin II receptor (AT1), benzodiazapene receptor (BZD), bradykinin receptor (B2), cholecystokinin receptor (CCK1), dopamine receptors (D1, D2S), endothelin receptor (ETA), GABA receptor (GABA), glutamate receptor (NMDA), histamine receptor (H1 central), melanocortin receptor (MC4), muscarinic receptor (M, non-selective), neurokinin receptor (NK1), neuropeptide Y receptor (Y), nicotinic receptor (neuronal, alpha-BGTX-insensitive), opiate receptor (non-selective opiate), orphanin receptor (ORL1), phencyclidine receptor (PCP), serotonin receptor (5-HT), sigma receptor (sigma non-selective), steroid receptor (glucocorticoid receptor, GR), and NE, DA, and 5-HT transporters.
(§2) The specific ligand binding to the receptors is defined as the difference between the total binding and the nonspecific binding determined in the presence of an excess of unlabelled ligand.

In data set [1] the test system is RIF^R M. tuberculosis strain 2482. Type of data set: cell-based.
Data set [2] concerns sigma receptor (sigma non-selective). Briefly: CEREP receptor binding, sigma. Particulars: tested at 10 μM.
From the text: as §1, §2

The nature of the next data set: in vitro. The data set is classed as in vitro ADME. Particulars: plasma.
Data set [3] concerns the target T2, Serotonin 5-HT transporter (Homo sapiens, UniProt P31645).
T2 construct: CEREP (contract testing)
Briefly: CEREP transporter binding, 5-HT. Particulars: tested at 10 μM; read-out: inhibition of control specific binding.
From the text: as §1, §2

For another data set, the system named is M. fortuitum. Briefly: Spectrum of activity MIC, rapid-grower, broth microdilution (NCCLS M24-A). Type of data set: cell-based. Particulars: Mycolicibacterium fortuitum; all strains tested.
The subject of data set [4] is Propionibacterium acnes, Bacteroides fragilis, and Clostridium difficile. Kind of data set: Spectrum of activity MIC (NCCLS), anaerobes. The data set is classed as cell-based. Here is the method: Compound 109 was tested against a representative panel of commonly encountered clinical microorganisms comprising opportunistic pathogens, target pathogens and normal human flora. The spectrum of activity of compound 109 was evaluated by performing antimicrobial susceptibility testing against a collection of aerobic and anaerobic bacteria, fungi, and mycobacteria. MICs for all organisms were established using the appropriate NCCLS (National Committee for Clinical Laboratory Standards) recommended standard methods and quality control strains.

For the next data set, the target named is human CYP2C19 (Homo sapiens, UniProt P33261). Kind of data set: Metabolism by CYP2C19. The data set is classed as in vitro ADME. From the text: Two of the groups contained oxidized metabolites. […] Based on the finding that SQ109 was metabolized rapidly by CYP, it is possible that its antimycobacterial activity may come from one of its metabolites. It is conceivable that SQ109 is a prodrug and requires activation by mycobacterial CYP. We speculate that when SQ109 is used in combination with rifampicin, the latter induces certain CYP activity within the Mycobacteria. Elevated CYP activity activates the SQ109 prodrug more efficiently, resulting in an apparent synergistic activity of the two drugs.

SMILES strings stand for the structures. Converted amounts (≈) assume the structure as drawn. Like-named read-outs stand apart in the source and are kept apart here.

The source of these data is patent US8202910B2 (Sequella, Inc., priority 2006, dated 2012).

T2 sequence (P31645 whole entry): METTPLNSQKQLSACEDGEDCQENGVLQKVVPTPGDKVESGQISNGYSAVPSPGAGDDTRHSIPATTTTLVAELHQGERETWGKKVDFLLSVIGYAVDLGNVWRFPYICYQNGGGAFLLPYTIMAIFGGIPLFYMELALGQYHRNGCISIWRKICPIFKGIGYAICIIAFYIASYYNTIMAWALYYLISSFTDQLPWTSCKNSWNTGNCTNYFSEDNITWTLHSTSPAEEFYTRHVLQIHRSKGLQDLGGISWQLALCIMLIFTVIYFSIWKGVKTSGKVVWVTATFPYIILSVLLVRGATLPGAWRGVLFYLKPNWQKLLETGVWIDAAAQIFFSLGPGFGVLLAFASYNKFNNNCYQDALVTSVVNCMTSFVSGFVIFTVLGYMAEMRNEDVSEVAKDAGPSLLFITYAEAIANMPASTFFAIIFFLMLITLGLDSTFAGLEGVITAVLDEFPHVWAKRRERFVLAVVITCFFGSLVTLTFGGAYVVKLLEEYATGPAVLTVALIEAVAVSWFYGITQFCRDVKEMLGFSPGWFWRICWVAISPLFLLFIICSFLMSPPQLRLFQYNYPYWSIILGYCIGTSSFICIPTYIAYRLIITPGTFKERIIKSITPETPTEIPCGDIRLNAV
T1 sequence (P21728 whole entry): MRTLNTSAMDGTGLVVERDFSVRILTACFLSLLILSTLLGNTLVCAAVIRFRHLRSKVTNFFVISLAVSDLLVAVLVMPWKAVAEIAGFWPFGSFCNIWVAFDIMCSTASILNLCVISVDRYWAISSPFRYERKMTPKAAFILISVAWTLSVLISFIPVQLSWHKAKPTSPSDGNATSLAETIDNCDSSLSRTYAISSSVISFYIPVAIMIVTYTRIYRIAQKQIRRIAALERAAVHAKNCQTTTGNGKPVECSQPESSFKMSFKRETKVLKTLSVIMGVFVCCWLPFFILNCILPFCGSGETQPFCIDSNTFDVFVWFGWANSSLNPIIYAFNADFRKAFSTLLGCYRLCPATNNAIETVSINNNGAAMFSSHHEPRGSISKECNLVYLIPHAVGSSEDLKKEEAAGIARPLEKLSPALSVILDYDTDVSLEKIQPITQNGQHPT
Chain of human CYP2C19 (P33261 whole entry): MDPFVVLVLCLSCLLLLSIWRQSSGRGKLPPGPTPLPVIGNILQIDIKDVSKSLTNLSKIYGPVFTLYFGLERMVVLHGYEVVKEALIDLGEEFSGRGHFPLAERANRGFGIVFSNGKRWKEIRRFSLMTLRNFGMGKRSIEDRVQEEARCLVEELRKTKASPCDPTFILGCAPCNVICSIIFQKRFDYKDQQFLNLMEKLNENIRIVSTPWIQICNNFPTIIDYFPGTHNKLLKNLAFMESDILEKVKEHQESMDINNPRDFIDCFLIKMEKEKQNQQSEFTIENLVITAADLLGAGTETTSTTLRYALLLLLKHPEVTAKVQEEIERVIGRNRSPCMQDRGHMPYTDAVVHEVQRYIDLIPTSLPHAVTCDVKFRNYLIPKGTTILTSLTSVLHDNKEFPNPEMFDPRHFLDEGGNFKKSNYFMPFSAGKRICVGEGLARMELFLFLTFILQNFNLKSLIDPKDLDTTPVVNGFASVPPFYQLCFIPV

Turning to `CC(C)=CCC/C(C)=C/CNCCNC1C2CC3CC(C2)CC1C3` (stereo not shown) [Compound 109, N-Geranyl-N′-(2-adamanthyl)ethane-1,2-diamine], the MIC is 0.25 µg/mL (≈ 0.756 µM) against M. bovis, 8 µg/mL (≈ 24.2 µM) with M. marinum, 1 µg/mL (≈ 3.03 µM) against M. fortuitum and 16 to 64 µg/mL (≈ 48.4 to 194 µM) in data set [4]. For the same compound, the inhibition at 10 µM at dopamine receptor D1 stood at 51%; in [3] it was 95%. Further, the x/y quotient in [1] (0.25 MIC SQ109 (0.08 mg/L) + 10 mg/L rifampicin) amounted to 0.66; in [1] (0.5 MIC SQ109 + rifampicin 25 mg/L), 0.497; in data set [1] (0.5 MIC SQ109 + rifampicin 50 mg/L), 0.39; in data set [1] (0.5 MIC SQ109 + rifampicin 100 mg/L), 0.33. Further, in [1] (0.5 MIC SQ109 added to 100 mg/L rifampicin), the growth inhibition entry is reported as “more than 99%”. Moreover, the “inhibition of control specific binding” value in data set [2] is 106%. This compound also gave a fraction unbound at 20 ng/ml in “in vitro” of 0.85. In addition, the fraction unbound at 200 ng/ml in “in vitro” was 0.26. In “in vitro”, this compound gave an unbound share (fraction unbound) at 2000 ng/ml of 0.52. The “metabolism by CYP” value at human CYP2C19 was “metabolized”.
